# Results from patent US3930838A, “S-benzyl-N,N-disec-butylthiocarbamate and its use as a rice field herbicide and a rice growth stimulant” (priority 1970, dated 1976).
# How the values were obtained:
# [1] = test system: rice; assay: Comparative selectivity test on rice in submerged culture, air-conditioned atmosphere (Example 7); format: in vivo; details: for Main root, average value per plant / Shoot, average value per plant / Sprouted plants: 24 days
# Method: (§1) Into a set of cylindrical pots having a 200 cm^2 internal surface, sieved rice field earth in a quantity of 1 kg. per pot was introduced. After leveling and wetting with 200 cc. of water, the earth surface of the pots was uniformly sprayed with hydroacetone solutions containing, respectively, 0, 0.2, 0.3, and 0.4% active product (a.p.). 4 Ml. of the solution were sprayed onto each pot, so that the amount of active product in a set of four pots was 0, 4, 6, and 8 kg./ha., respectively. Immediately after spraying, each pot was filled with water to a level of 7 cm. over the soil surface. Thereafter, the sowing was carried out at the rate of 15 pre-germinated rice seeds per pot. Three repetitions were performed for each treatment. The pots were kept in an air-conditioned atmosphere with a daily temperature variation between 10° and 25°C and a 14 hour per day light period. After 24 days, the percentage of sprouted plants and the length of the shoot were recorded.
# [2] = test system: rice; assay: Open field test on rice, biometric controls (Example 10); format: in vivo, rice cv. RIBE; details: 36 days
# Method: (§2) In the province of Novara, Italy, a test was performed outdoors in clay soil. For each treatment, a 600 m^2 plot provided with independent water feed was prepared. After soil working and leveling, the treatment was effected on Apr. 23, 1970, using formulations in emulsifiable oils of M3432 and of molinate, sprayed by means of mechanical devices. Only the plot treated with molinate was harrowed just after treatment in order to incorporate the product and to avoid any losses of same due to volatilization. Immediately afterwards, the plots were flooded to a water level of 10-12 cm.
# (§3) Pre-germinated cv. RIBE rice was mechanically sowed broadcast on Apr. 25, 1970.
# 36 Days after the treatment, 50 rice plants were taken at random from each plot and subjected to biometric controls.
# [3] = test system: Rice plants; assay: Open field test on rice, periodical checks of the plots (Example 10); format: in vivo, rice cv. RIBE; details: two months
# Method: as §2, §3
# Periodical checks were carried out on the four plots. […]
# [4] = test system: Agrostis segetum; assay: Weeding activity in screening conditions (Example 12); format: in vivo; design: scale not given here; details: 25 days
# Description: (§4) Two sets of small square tanks having 11 cm. sides, filled with field earth admixed with 30% of sand, were sowed at a depth of 0.5-1 cm. with the following grass species: Echinocloa crus galli, Setaria italica, Alopecurus myosiuroides, Lolium italicum, Digitaria sanguinalis, Avena fatua, Agrostis segetum, and Dactylis glomerata. After sowing, the earth surface of the tanks was uniformly sprayed with 2.4 cc./tank of hydroacetone solutions containing, respectively, 0, 0.05, 0.10, 0.20 and 0.30% of M3432 and of molinate, respectively, in order to obtain doses thereof corresponding to 0, 1, 2, 4, and 6 kg./ha., respectively.
# (§5) Only one set of small tanks was covered with a 1 cm. layer of earth just after the treatment. All of the tanks were kept in an air-conditioned chamber identical with that described in Example 7, and were watered every day. 25 days after the treatment, the final results were examined, attributing to each treatment the following scale of values: […]
# [5] = test system: Alopecurus myosiuroides; assay: as above; format: in vivo; design: scale not given here; details: 25 days
# Description: as §4, §5
# [6] = test system: Avena fatua; assay: as above; format: in vivo; design: scale not given here; details: 25 days
# Description: as §4, §5
# [7] = test system: Digitaria sanguinalis; assay: as above; format: in vivo; design: scale not given here; details: 25 days
# Description: as §4, §5
# [8] = test system: Lolium italicum; assay: as above; format: in vivo; design: scale not given here; details: 25 days
# Description: as §4, §5
# [9] = test system: Echinocloa spp.; assay: Pre-emergence activity on Echinocloa in flooded cultures, pots (Example 13); format: in vivo
# Method: as §1, with “After 24 days, the percentage of sprouted plants and the length of the shoot were recorded.” left out
# The same method described in Example 7 was adopted, the only variations being the doses (0, 0.5, 1, 2 and 4 kg./ha.). the type of formulation and the sowing of Echinocloa spp. (25 slightly pre-germinated seeds per pot) instead of rice.
# [10] = Treated surface covered with 1 cm earth layer, 2 kg./ha.
# [11] = Treated surface covered with 1 cm earth layer, 4 kg./ha.
# [12] = Treated surface covered with 1 cm earth layer, 6 kg./ha.
# [13] = Test No. 1, hydroacetone solution, 4 kg./ha., 22 days
# [14] = Test No. 1, hydroacetone solution, 2 kg./ha., 22 days
# [15] = Test No. 2, hydroacetone solution, 0.5 kg./ha., 21 days
# [16] = Test No. 2, hydroacetone solution, 1 kg./ha., 21 days
# [17] = Test No. 2, hydroacetone solution, 2 kg./ha., 21 days
# [18] = Test No. 3, 50% emulsifiable oil, 2 kg./ha., 27 days
# [19] = Test No. 3, 50% emulsifiable oil, 4 kg./ha., 27 days
# [20] = Test No. 3, hydroacetone solution, 2 kg./ha., 27 days
# [21] = Test No. 3, hydroacetone solution, 4 kg./ha., 27 days
structure (smiles),measurement,setting,value
"CCSC(=O)N1CCCCCC1 [Molinate, ethyl-1-hexamethylene-imino-carbothiolate, reference compound]","Main root, average value per plant",[1]; 4 kg./ha.,7.4 cm.
same,"Shoot, average value per plant",[1]; 4 kg./ha.,15.3 cm.
same,Sprouted plants,[1]; 4 kg./ha.,42.3%
same,"Main root, average value per plant",[1]; 6 kg./ha.,3.9 cm.
same,"Shoot, average value per plant",[1]; 6 kg./ha.,8.2 cm.
same,Sprouted plants,[1]; 6 kg./ha.,20.0%
same,"Main root, average value per plant",[1]; 8 kg./ha.,4.6 cm.
same,"Shoot, average value per plant",[1]; 8 kg./ha.,6.6 cm.
same,Sprouted plants,[1]; 8 kg./ha.,11.0%
same,Margin of safety on rice,[1]; rice growth unfavorably affected even at 6 kg./ha.,narrow margin of safety
same,Main root,[2]; 4 kg./ha.,7.67 cm.
same,"Roots, average weight per plant on dry basis",[2]; 4 kg./ha.,1.866 g
same,Secondary roots,[2]; 4 kg./ha.,9.06 no.
same,Shoot,[2]; 4 kg./ha.,25.72 cm.
same,"Shoot, average weight per plant on dry basis",[2]; 4 kg./ha.,3.257 g
same,"Total, average weight per plant on dry basis",[2]; 4 kg./ha.,5.123 g
same,Average height,[3]; 4 kg./ha.,35-45 cm.
same,Rice plants appearance,[3]; 4 kg./ha.,normal
same,Stand (number of tillers per unit of area),[3]; 4 kg./ha.,normal
same,Weeding activity,"[4]; Surface, 2 kg./ha.",2
same,Weeding activity,"[4]; Surface, 4 kg./ha.",4
same,Weeding activity,"[4]; Surface, 6 kg./ha.",4
same,Weeding activity,[4]; [10],4
same,Weeding activity,[4]; [11],4
same,Weeding activity,[4]; [12],4
same,Weeding activity,"[5]; Surface, 2 kg./ha.",1/2
same,Weeding activity,"[5]; Surface, 4 kg./ha.",2
same,Weeding activity,"[5]; Surface, 6 kg./ha.",3
same,Weeding activity,[5]; [10],3
same,Weeding activity,[5]; [11],4/3
same,Weeding activity,[5]; [12],4/3
same,Weeding activity,"[6]; Surface, 2 kg./ha.",1
same,Weeding activity,"[6]; Surface, 4 kg./ha.",3/2
same,Weeding activity,"[6]; Surface, 6 kg./ha.",4/3
same,Weeding activity,[6]; [10],4
same,Weeding activity,[6]; [11],4
same,Weeding activity,[6]; [12],4
same,Weeding activity,"[7]; Surface, 2 kg./ha.",0
same,Weeding activity,"[7]; Surface, 4 kg./ha.",3/4
same,Weeding activity,"[7]; Surface, 6 kg./ha.",4
same,Weeding activity,[7]; [10],4
same,Weeding activity,[7]; [11],4
same,Weeding activity,[7]; [12],4
same,Weeding activity,"[8]; Surface, 2 kg./ha.",0/1
same,Weeding activity,"[8]; Surface, 4 kg./ha.",2
same,Weeding activity,"[8]; Surface, 6 kg./ha.",2/3
same,Weeding activity,[8]; [10],3/2
same,Weeding activity,[8]; [11],3/4
same,Weeding activity,[8]; [12],4
same,Main root,[9]; [13],0 cm.
same,Shoot,[9]; [13],0 cm.
same,Stand (Sprouted plants),[9]; [13],0%
"CCC(C)N(C(=O)SCc1ccccc1)C(C)CC (stereo not shown) [M3432, S-benzyl-N,N-disec.butylthiocarbamate]","Main root, average value per plant",[1]; 4 kg./ha.,8.3 cm.
same,"Shoot, average value per plant",[1]; 4 kg./ha.,17.8 cm.
same,Sprouted plants,[1]; 4 kg./ha.,60.0%
same,"Main root, average value per plant",[1]; 6 kg./ha.,10.4 cm.
same,"Shoot, average value per plant",[1]; 6 kg./ha.,21.1 cm.
same,Sprouted plants,[1]; 6 kg./ha.,53.3%
same,"Main root, average value per plant",[1]; 8 kg./ha.,10.1 cm.
same,"Shoot, average value per plant",[1]; 8 kg./ha.,23.9 cm.
same,Sprouted plants,[1]; 8 kg./ha.,77.7%
same,Main root,[2]; 4 kg./ha.,9.29 cm.
same,"Roots, average weight per plant on dry basis",[2]; 4 kg./ha.,2.431 g
same,Secondary roots,[2]; 4 kg./ha.,9.64 no.
same,Shoot,[2]; 4 kg./ha.,29.22 cm.
same,"Shoot, average weight per plant on dry basis",[2]; 4 kg./ha.,4.073 g
same,"Total, average weight per plant on dry basis",[2]; 4 kg./ha.,6.504 g
same,Main root,[2]; 6 kg./ha.,10.19 cm.
same,"Roots, average weight per plant on dry basis",[2]; 6 kg./ha.,3.123 g
same,Secondary roots,[2]; 6 kg./ha.,10.42 no.
same,Shoot,[2]; 6 kg./ha.,30.17 cm.
same,"Shoot, average weight per plant on dry basis",[2]; 6 kg./ha.,4.209 g
same,"Total, average weight per plant on dry basis",[2]; 6 kg./ha.,7.341 g
same,Average height,[3]; 4 kg./ha.,about 60 cm.
same,Average height,[3]; 6 kg./ha.,about 60 cm.
same,Weeding activity,"[4]; Surface, 1 kg./ha.",4
same,Weeding activity,"[4]; Surface, 2 kg./ha.",4
same,Weeding activity,"[4]; Surface, 6 kg./ha.",4
same,Weeding activity,[4]; [10],4
same,Weeding activity,[4]; [11],4
same,Weeding activity,[4]; [12],4
same,Weeding activity,"[5]; Surface, 1 kg./ha.",1/2
same,Weeding activity,"[5]; Surface, 2 kg./ha.",2
same,Weeding activity,"[5]; Surface, 4 kg./ha.",3
same,Weeding activity,"[5]; Surface, 6 kg./ha.",4
same,Weeding activity,[5]; [10],4
same,Weeding activity,[5]; [11],4
same,Weeding activity,[5]; [12],4
same,Weeding activity,"[6]; Surface, 1 kg./ha.",2/3
same,Weeding activity,"[6]; Surface, 2 kg./ha.",3
same,Weeding activity,"[6]; Surface, 4 kg./ha.",3
same,Weeding activity,"[6]; Surface, 6 kg./ha.",3
same,Weeding activity,[6]; [10],4
same,Weeding activity,[6]; [11],4
same,Weeding activity,[6]; [12],4
same,Weeding activity,"[7]; Surface, 1 kg./ha.",3
same,Weeding activity,"[7]; Surface, 2 kg./ha.",4
same,Weeding activity,"[7]; Surface, 4 kg./ha.",4
same,Weeding activity,"[7]; Surface, 6 kg./ha.",4
same,Weeding activity,[7]; [10],4
same,Weeding activity,[7]; [11],4
same,Weeding activity,[7]; [12],4
same,Weeding activity,"[8]; Surface, 1 kg./ha.",4
same,Weeding activity,"[8]; Surface, 2 kg./ha.",4
same,Weeding activity,"[8]; Surface, 4 kg./ha.",4
same,Weeding activity,"[8]; Surface, 6 kg./ha.",4
same,Weeding activity,[8]; [10],4
same,Weeding activity,[8]; [11],4
same,Weeding activity,[8]; [12],4
same,Main root,[9]; [14],0 cm.
same,Shoot,[9]; [14],0 cm.
same,Stand (Sprouted plants),[9]; [14],0%
same,Main root,[9]; [13],0 cm.
same,Shoot,[9]; [13],0 cm.
same,Stand (Sprouted plants),[9]; [13],0%
same,Main root,[9]; [15],3.28 cm.
same,Shoot,[9]; [15],8.81 cm.
same,Stand,[9]; [15],62%
same,Main root,[9]; [16],0 cm.
same,Shoot,[9]; [16],0 cm.
same,Stand,[9]; [16],0%
same,Main root,[9]; [17],0 cm.
same,Shoot,[9]; [17],0 cm.
same,Stand,[9]; [17],0%
same,Main root,[9]; [18],0 cm.
same,Shoot,[9]; [18],0 cm.
same,Stand,[9]; [18],0%
same,Main root,[9]; [19],0 cm.
same,Shoot,[9]; [19],0 cm.
same,Stand,[9]; [19],0%
same,Main root,[9]; [20],0 cm.
same,Shoot,[9]; [20],0 cm.
same,Stand,[9]; [20],0%
same,Main root,[9]; [21],0 cm.
same,Shoot,[9]; [21],0 cm.
same,Stand,[9]; [21],0%
